Data taken from patent US20040214900A1, “Method of treating strongyloides infections and medicaments therefor” (priority 2003, published 2004).
Where two headings read alike, the source gives them in different places. Marks after values point to notes of the source that are not given here.

Key:
[1] = test system: Strongyloides stercoralis infective larvae; experiment: Immobilisation of S. stercoralis infective larvae incubated in 0.6% AI suspensions; format: cell-based; settings: for Relative activity (RA), immobilisation / Larvae immobilized: 0.6% AI; for Relative activity (RA), immobilisation: RA of albendazole used as reference; for It50 (hours) ±95% Fiducial limits (FL), immobilisation time: 0.6% active ingredient, S. stercoralis infective larvae; for Larvae immobilized: within one hour's exposure
Protocol: (§1) Coproculture of about 30 g of fresh, moistened canine faeces was conducted using granular charcoal (1:1 v:v) in sealed 10 cm diameter Petri dishes. Cultures were maintained at 26° C. under semi-lighted conditions. S. stercoralis filariform larvae typically migrated to the surface of the culture and eventually into water droplets that condensed on the inner surface of the lid. Larvae appearing within 2 days were mostly those accruing from the homogonic cycle and usually occurred in insufficient numbers for bioassay. After five to eight days had elapsed free-living adult worms had effected a 50-fold increase in the population density (heterogonic cycle).
The effectiveness of the tested compounds was evaluated by incubating larvae obtained as in Example 1 in suspensions containing 0.6% of Compound (1) as the active ingredient (AI). Incubation times were 1, 2, 3, 4, 5, 6, 24, 48, 72, and 96 hours. Three (3) replicates were run in each assay, using >>100 larvae per replicate.
The anthelmintic effectiveness of Compound (1) and of three commercial anthelmintics, namely albendazole, thiabendazole, and ivermectin, was evaluated, and the results are summarized in Table 1. Compound (1) immobilized 100% of the larvae within one hour's exposure. This was also true for ivermectin. However, similar concentrations of albendazole and thiabendazole immobilized 50% of the infective larvae only after 73.7 and 78.9 hours, respectively.

[2] = test system: Strongyloides stercoralis infective larvae; experiment: microbe, parasite or virus in culture; format: cell-based; settings: for Relative activity (RA), mortality: RA of Compound (1) used as reference; for Lt50 (hours) ±95% Fiducial limits (FL), mortality time: S. stercoralis infective larvae; for mortality at 0.6 % strength: Strongyloides stercoralis, read-out: Larvae killed (mortality)
Protocol: as §1
The lethality of the tested compounds was evaluated by incubating larvae obtained as in Example 1 in suspensions containing 0.6% of Compound (1) as the active ingredient (AI).
The mortality of the larvae was assessed by a dye exclusion test such as have been used successfully to indicate viability in parasitic platyhelminths. (See Halton & Arme (1971) Exp. Parasit. 30:54; Robinson & Arme (1985) Ann. Trop. Med. & Parasit. 79:17.) Similar testing was applied to S. stercoralis larvae. In these tests, use of
0.01% v/v eosin in LNSS (ELNSS) in an eosin-exclusion test indicated death of larvae in less than 10 minutes and had no effect on healthy individuals.

| Molecule | Relative activity (RA), immobilisation [1] | It50 (hours) ±95% Fiducial limits (FL), immobilisation time [1] | Larvae immobilized [1] [%] | Relative activity (RA), mortality ([2]; 0.6% AI) | Lt50 (hours) ±95% Fiducial limits (FL), mortality time ([2]; 0.6% AI) | Lt50 (hours) ±95% Fiducial limits (FL), mortality time ([2]; 0.6% AI, listed as Compound(1)) | Fold increase in lethal activity over albendazole ([2]; Lt50 basis, 0.6% AI, versus albendazole) [fold] | Fold increase in lethal activity over ivermectin ([2]; Lt50 basis, 0.6% AI, versus ivermectin) [fold] | Fold increase in lethal activity over thiabendazole ([2]; Lt50 basis, 0.6% AI, versus thiabendazole) [fold] | mortality at 0.6 % strength ([2]; 6 h, after six hours, 0.6% AI) [%] | Lt50 (hours) ±95% Fiducial limits (FL), mortality time ([2]; 0.6% AI, listed as ivermectin) [h] | Larvae killed (mortality) ([2]; after 24 hours, 0.6% AI) [%] | It50 (hours) ±95% Fiducial limits (FL), immobilisation time ([1]; listed as thiabendazole) [h] | mortality at 0.6 % strength ([2]; 120 h) [%] | It50 (hours) ±95% Fiducial limits (FL), immobilisation time ([1]; listed as albendazole) [h] |
| --- | --- | --- | --- | --- | --- | --- | --- | --- | --- | --- | --- | --- | --- | --- | --- |
| CCCCCCCCC/C=C/C=O [Compound (1), E-2-dodecenal] | >1.00 | <1* hours | 100 | 1.00* | 2.2 h | 2.2 (1.2-3.3) hours | 66.1 | 7.1 | 81.3 | 90.8 | – | – | – | – | – |
| ivermectin | >1.00 | <1* hours | 100 | 0.14 | 15.7 (12.5-18.1) hours | – | – | – | – | – | 15.7 | 89.0 | – | – | – |
| c1ccc2[nH]c(-c3cscn3)nc2c1 [Thiabendazole] | 0.93 | 78.9 (65.5-92.8) hours | – | 0.01 | 178.9 h | – | – | – | – | – | – | – | 78.9 | 14.1 | – |
| CCCSc1ccc2nc(NC(=O)OC)[nH]c2c1 [Albendazole, albendazole] | 1.00 | 73.7 (60.4-87.0) hours | – | 0.02 | 145.3 h | – | – | – | – | – | – | – | – | 37.4 | 73.7 |
